Experimental data published in the supplement of paper PMC6470124.

Tests used:
[1] = absolute recovery over mixed-bed multilayer solid-phase extraction; higher = better recovery; details: enrichment method: SPE
Outline: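 Absolute recovery rests on background-corrected response ratios of pre- versus post-spiked samples, averaged over at least two replicates. Wastewater (100–250 mL, pH 6.5, glass-fibre filtered) was spiked at 1000 ng/L and unfiltered nanopure water (1000 mL) at 200 ng/L, before or after three-layer mixed-bed cartridge extraction or not at all, with exceptions for some classes. Analysis after internal standard addition used liquid chromatography with high-resolution tandem mass spectrometry in both ionisation modes.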

[2] = LC retention time (Atlantis T3, 5-95% MeOH gradient, 0.1% formic acid); higher = more retained / less polar
Outline: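 Retention times were recorded for reference standards (purity ≥ 95%) on a polar reversed-phase C18 column (Atlantis T3, 3 × 150 mm, 3 μm) at 0.3 mL/min. Elution used water and methanol, each with 0.1% formic acid, in a gradient from 5 to 95% methanol over 17.5 min. Detection was by high-resolution tandem mass spectrometry on a QExactive Plus, with positive and negative electrospray in separate runs. Peaks were found and integrated in TraceFinder (5 ppm tolerance, at least three points per peak) and then checked by hand.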

[3] = absolute recovery over vacuum-assisted evaporative concentration; higher = better recovery; details: enrichment method: VEC
Outline: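 Water samples (influent 6 mL, effluent 15 mL, surface and nanopure water 60 mL) were spiked with standards before concentration, after concentration or not at all, at 200 ng/L (nanopure/surface) or 1000 ng/L (wastewater), with class- and compound-specific adjustments. They were evaporated at 55 °C and 20 mbar to about 0.3 mL, brought to 0.4 mL and centrifuged. Internal standards were added afterwards and samples were analysed by LC-HRMS/MS. Absolute recovery was (response ratio pre − unspiked)/(post − unspiked) × 100, using averages of ≥ 2 replicates.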

| absolute recovery ([1]; nanopure water) [%] | absolute recovery ([1]; surface water) [%] | absolute recovery ([1]; wastewater effluent) [%] | absolute recovery ([1]; wastewater influent) [%] | LC retention time [2] [min] | absolute recovery ([3]; wastewater effluent) [%] | absolute recovery ([3]; wastewater influent) [%] | Compound |
| --- | --- | --- | --- | --- | --- | --- | --- |
| 86.9 | 21.3 | 49.2 | 66.1 | 11.8 | 96.4 | 70.3 | Cc1cc(N(C2OC(C(=O)[O-])C(O)C(O)C2O)S(=O)(=O)c2ccc(N)cc2)no1 (stereo not drawn) [Sulfamethoxazole-N1-Glucuronide] |
| 61.2 | 10.8 | 21.2 | 33.4 | 18.4 | 91.3 | – | Cc1onc(-c2ccccc2)c1C(=O)NC1C(=O)N2C1SC(C)(C)C2C(=O)[O-] (stereo not drawn) [Oxacillin] |
| – | – | 55.3 | 38.7 | 21.6 | 119 | 4.7 | CCCCCCCCCCCCCC[N+](C)(C)CCCCCCCCCCCCCC [Dimethylditetradecylammonium (=ATMAC-18)] |
| 90.1 | – | 95.7 | 68.4 | 14.5 | 104 | 108 | C[NH+]1CCN2c3ccccc3Cc3ccccc3C2C1 (stereo not drawn) [Mianserin] |
| 96.4 | 99 | – | 86.6 | 19.8 | 105 | 108 | COCC(C)N(C(=O)C(=O)[O-])c1c(C)csc1C (stereo not drawn) [Dimethenamid-OXA] |
| 86.9 | 89.1 | 83.2 | 96.5 | 18.4 | 93.2 | 86.2 | CCN(CC)C(=O)c1cccc(C)c1 [N-N-diethyl-3-methylbenzamid (=DEET)] |
| 93.9 | 95 | 91.2 | 91.5 | 20.8 | 104 | 98.9 | COc1ccc2c(c1)c(CC(=O)[O-])c(C)n2C(=O)c1ccc(Cl)cc1 [Indomethacin] |
| 95.4 | 91.9 | 68.2 | 82.4 | 15.4 | 104 | 97.2 | Nc1c(I)c(N)c(I)c(C(=O)[O-])c1I [3-5-Diamino-2-4-6-triiodobenzoic-acid] |
| 75.8 | 64.3 | 66.3 | 66.2 | 3.04 | 102 | 124 | CCC(CO)NCC[NH2+]C(CC)CO (stereo not drawn) [Ethambutol] |
| – | – | – | – | 14.4 | 60.5 | 37.5 | COc1cc(NC(C)CCC[NH3+])c2ncccc2c1 (stereo not drawn) [Primaquine] |
| – | – | – | – | 20.8 | 105 | 72.3 | CC(C)n1c(C=CC(O)CC(O)CC(=O)[O-])c(-c2ccc(F)cc2)c2ccccc21 (stereo not drawn) [Fluvastatin] |
| – | – | – | – | 17.2 | – | 108 | CCOCN(C(=O)CS(=O)(=O)[O-])c1c(C)cccc1CC [Acetochlor-ESA] |
| – | – | – | – | 17.2 | – | 106 | CCc1cccc(CC)c1N(COC)C(=O)CS(=O)(=O)[O-] [Alachlor-ESA] |
| – | – | – | – | 18.8 | 110 | 96.4 | CC(C(=O)[O-])c1cccc(C(=O)c2ccccc2)c1 (stereo not drawn) [Ketoprofen] |
| – | – | – | – | 20.2 | 65.2 | – | CC1=C(C(=O)[O-])N2C(=O)C(NC(=O)C([NH3+])c3ccccc3)C2SC1 (stereo not drawn) [Cefalexin] |
| – | – | – | – | 8.64 | 102 | 98.7 | CNC(=C[N+](=O)[O-])NCCSCc1ccc(C[NH+](C)C)o1 [Ranitidin] |
| – | – | – | – | 17.1 | 86.8 | 100 | Cc1c(OCC(F)(F)F)ccnc1CS(=O)c1nc2ccccc2[nH]1 (stereo not drawn) [Lansoprazole] |

| Compound | absolute recovery ([1]; nanopure water) [%] | absolute recovery ([1]; surface water) [%] | absolute recovery ([1]; wastewater effluent) [%] | absolute recovery ([1]; wastewater influent) [%] | LC retention time [2] [min] | absolute recovery ([3]; wastewater effluent) [%] | absolute recovery ([3]; wastewater influent) [%] |
| --- | --- | --- | --- | --- | --- | --- | --- |
| CCOP(=O)(OCC)OCC [Triethylphosphat] | 76.6 | 87.7 | 81.5 | – | 15.9 | 83.5 | 79.6 |
| O=P1(N(CCCl)CCCl)NCCCO1 (stereo not drawn) [Cyclophosphamid] | 98.1 | 96.4 | 93.9 | 94.5 | 16.1 | 104 | 100 |
| Clc1cccc(N2CC[NH2+]CC2)c1 [1-(3-Chlorophenyl)-piperazine] | 70.3 | 74.7 | 68.1 | 79.3 | 12.6 | 103 | 99.6 |
| CCNc1nc(Cl)nc(NCC)n1 [Simazin] | 94.2 | 94.4 | 88.3 | 94.9 | 17.2 | 98.3 | 106 |
| C[Si](Cn1cncn1)(c1ccc(F)cc1)c1ccc(F)cc1 [Flusilazol] | 103 | – | 99.5 | 82.4 | 20.4 | 114 | 107 |
| CCC(C(N)=O)N1CCCC1=O (stereo not drawn) [Levetiracetam] | 65.6 | 60.2 | 56.3 | – | 10.9 | 105 | – |
| CCCCNC(=O)OCC#CI [IPBC (=Iodocarb)] | 97.8 | 79.9 | 72.2 | 74.3 | 18.1 | 60.1 | – |
